Assay results published in publication PMC2360244 (British Journal of Cancer, 2007).
Where two headings read alike, the source gives them in different places.

How the values were obtained:
[1] = molecular target: HDAC1 (Rattus norvegicus, UniProt Q4QQW4); format: biochemical
Description: After centrifugation, the cleared extract was used for immunoprecipitation of HDAC1. […] (Amersham Pharmacia Biotech, Piscataway, NJ, USA) in a total volume of 50 μl enzyme assay buffer (25 mM HEPES (pH 7.4), 1 M sucrose, 0.1 mg ml^−1 BSA and 0.01% (v v^−1) Triton X-100). Incubation was performed for 45 min at 37°C (immunoprecipitates) or 30 min at room temperature (HeLa nuclear extract). Before addition of substrate, HDAC inhibitors were added at increasing concentrations and preincubated for 10 min at room temperature. After incubation, the reaction was quenched with 35 μl stop buffer (1 M HCl and 0.4 M acetic acid). Released [^3H]acetic acid was extracted with 800 μl ethyl acetate and quantified by scintillation counting. Equal amounts of HDAC1 were immunoprecipitated as indicated by western blot analysis. Histone deacetylase 1 activity results are presented as mean±s.d. of three independent experiments on a single lysate. […] Finally, we measured the activities of different HDAC isotypes present in partially purified extract from rat liver using the fluorescent HDAC substrates MAL (unselective), B61 (selective for HDAC1, and to some extent also converted by HDAC3) and B12 (selective for HDAC6).

[2] = molecular target: T1, HDAC6 (Rattus norvegicus, UniProt A0A8I6GM68); experiment: biochemical; format: biochemical
T1 construct: partially purified extract from rat liver; from tissue; host or cells: rat liver, partially purified extract
Description: (§1) After centrifugation, the cleared extract was used for immunoprecipitation of HDAC1. […] Incubation was performed for 45 min at 37°C (immunoprecipitates) or 30 min at room temperature (HeLa nuclear extract). Before addition of substrate, HDAC inhibitors were added at increasing concentrations and preincubated for 10 min at room temperature. After incubation, the reaction was quenched with 35 μl stop buffer (1 M HCl and 0.4 M acetic acid). Released [^3H]acetic acid was extracted with 800 μl ethyl acetate and quantified by scintillation counting. Equal amounts of HDAC1 were immunoprecipitated as indicated by western blot analysis. Histone deacetylase 1 activity results are presented as mean±s.d. of three independent experiments on a single lysate. […] Finally, we measured the activities of different HDAC isotypes present in partially purified extract from rat liver using the fluorescent HDAC substrates MAL (unselective), B61 (selective for HDAC1, and to some extent also converted by HDAC3) and B12 (selective for HDAC6).

[3] = test system: A2780 ovarian carcinoma cells; experiment: A2780 tumour cell proliferation, MTT colorimetric assay; format: cell-based, human; conditions: 4 days, mean±s.d.
Description: Control cells were treated with the combined respective vehicle.

[4] = test system: H3 acetylation and p21waf1,cip1 in A2780 ovarian carcinoma cells; experiment: Western blot of acetylated H3 and p21waf1,cip1 in A2780 cells (class I HDAC readout); format: cell-based, human; conditions: 24 h, western blot
Description: (§2) Human A2780 ovarian carcinoma cells were incubated with the indicated concentrations of HDAC inhibitors. Total cell lysates were prepared and analysed by SDS–PAGE. […] To control for equal loading, blots were stripped and re-probed with mouse monoclonal antiactin IgM (Ab-1, Oncogene Research products, Merck, Darmstadt, Germany). […] Protein–antibody complexes were then visualised by chemiluminescence (Pierce Chemical Co., Perbioscience, Erembodegem, Belgium) or fluorescence (Odyssey) according to manufacturer's instructions.
(§3) Total cell lysates were prepared and analysed by SDS–PAGE. Levels of acetylated H3 and tubulin, and of total levels of H3 and tubulin and of p21^waf1, cip1 and Hsp70 and c-raf protein, were detected using rabbit polyclonal and mouse monoclonal antibodies, followed by ECL detection as indicated in the Methods section. To control for equal loading, blots were stripped and re-probed with antibodies against actin and the nuclear protein Lamin B1. A representative experiment out of three is shown.

[5] = test system: tubulin acetylation and Hsp70 in A2780 ovarian carcinoma cells; experiment: Western blot of acetylated tubulin and Hsp70 in A2780 cells (HDAC6 readout); format: cell-based, human; conditions: for concentration at which tubulin acetylation (and Hsp70 induction) is evident: western blot
Description: as §2, §3

[6] = test system: HDAC isotypes in partially purified extract from rat liver (MAL, unselective); conditions: read-out: Liver extract MAL unselective IC50, substrate MAL
Description: as §1

T1 sequence (A0A8I6GM68 whole entry): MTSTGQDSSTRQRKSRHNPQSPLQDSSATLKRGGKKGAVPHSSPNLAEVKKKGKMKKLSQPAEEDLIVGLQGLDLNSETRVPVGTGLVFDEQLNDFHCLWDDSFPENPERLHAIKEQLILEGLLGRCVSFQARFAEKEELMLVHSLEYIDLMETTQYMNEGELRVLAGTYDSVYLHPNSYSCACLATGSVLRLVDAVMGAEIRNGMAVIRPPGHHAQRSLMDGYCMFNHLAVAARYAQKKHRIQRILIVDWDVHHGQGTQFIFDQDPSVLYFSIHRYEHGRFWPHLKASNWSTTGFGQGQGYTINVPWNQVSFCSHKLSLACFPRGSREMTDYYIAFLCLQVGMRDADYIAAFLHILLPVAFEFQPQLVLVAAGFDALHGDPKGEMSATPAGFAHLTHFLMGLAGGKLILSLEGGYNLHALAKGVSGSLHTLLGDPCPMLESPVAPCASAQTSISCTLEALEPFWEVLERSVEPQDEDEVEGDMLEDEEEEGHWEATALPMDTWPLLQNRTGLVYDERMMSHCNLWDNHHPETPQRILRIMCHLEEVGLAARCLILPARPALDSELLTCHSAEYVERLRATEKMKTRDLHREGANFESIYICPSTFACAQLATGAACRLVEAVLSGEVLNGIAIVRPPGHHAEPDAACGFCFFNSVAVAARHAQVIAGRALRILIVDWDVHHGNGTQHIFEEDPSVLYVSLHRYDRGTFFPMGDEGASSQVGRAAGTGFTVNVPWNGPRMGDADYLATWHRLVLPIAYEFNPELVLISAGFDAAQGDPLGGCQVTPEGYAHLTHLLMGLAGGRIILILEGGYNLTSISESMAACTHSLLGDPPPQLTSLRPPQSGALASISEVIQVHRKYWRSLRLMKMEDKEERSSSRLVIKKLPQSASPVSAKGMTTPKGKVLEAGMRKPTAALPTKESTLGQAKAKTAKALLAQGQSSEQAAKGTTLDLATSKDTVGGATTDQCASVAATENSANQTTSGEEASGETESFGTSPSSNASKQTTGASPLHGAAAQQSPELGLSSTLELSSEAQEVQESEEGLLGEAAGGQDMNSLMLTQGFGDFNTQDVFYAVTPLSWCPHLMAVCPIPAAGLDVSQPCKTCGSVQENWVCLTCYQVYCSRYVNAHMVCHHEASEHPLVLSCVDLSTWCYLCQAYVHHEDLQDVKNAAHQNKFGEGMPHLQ
Chain of HDAC1 (Q4QQW4 whole entry): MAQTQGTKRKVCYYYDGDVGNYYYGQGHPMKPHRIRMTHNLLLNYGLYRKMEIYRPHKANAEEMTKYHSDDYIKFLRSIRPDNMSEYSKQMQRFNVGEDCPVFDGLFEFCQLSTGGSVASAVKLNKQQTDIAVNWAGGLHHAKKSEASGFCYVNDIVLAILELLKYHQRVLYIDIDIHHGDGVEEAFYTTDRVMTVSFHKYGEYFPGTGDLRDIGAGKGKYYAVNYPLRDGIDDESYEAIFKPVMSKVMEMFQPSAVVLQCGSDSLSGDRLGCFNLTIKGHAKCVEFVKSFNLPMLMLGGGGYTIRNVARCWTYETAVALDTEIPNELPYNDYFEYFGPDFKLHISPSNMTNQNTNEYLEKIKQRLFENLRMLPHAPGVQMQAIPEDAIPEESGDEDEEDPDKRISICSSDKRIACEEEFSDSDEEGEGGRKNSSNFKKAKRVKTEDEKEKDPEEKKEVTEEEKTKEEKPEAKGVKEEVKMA

SMILES	IC50 [3]	concentration at which H3 acetylation is induced [4]	IC50 [6]	concentration at which tubulin acetylation (and Hsp70 induction) is evident ([5]; 24 h)	also measured
Nc1ccccc1NC(=O)c1ccc(CNC(=O)OCc2cccnc2)cc1 [MS-275]	376 ± 169 nM	3000 nM			Liver extract B61 HDAC1 IC50 ([1]; rat liver extract, substrate B61): Inactive; Liver extract B12 HDAC6 IC50 ([2]; rat liver extract, substrate B12): Inactive; effect on tubulin acetylation or Hsp70 levels ([5]; 3 μM, 24 h): did not affect tubulin acetylation or Hsp70 levels
Cc1[nH]c2ccccc2c1CCNCc1ccc(/C=C/C(=O)NO)cc1 [Panobinostat]		100 nM	75 ± 4 nM	100 nM	IC50 [2]: 89 ± 12 nM; substrate preference B61 (HDAC1/HDAC3) vs B12 (HDAC6) ([2]; rat liver HDAC preparation): equipotent activity towards both substrates; IC50 ([3]; Homo sapiens, A2780, 96 h): 4.6 ± 1.8 nM
CC(/C=C/C(=O)NO)=C\[C@@H](C)C(=O)c1ccc(N(C)C)cc1 [TSA, Trichostatin A]	23 ± 8 nM	300 nM	12 ± 1.2 nM	300 nM	IC50 ([2]; read-out: Liver extract B12 HDAC6 IC50): 20.7 ± 2.6 nM
O=C(CCCCCCC(=O)Nc1ccccc1)NO [Vorinostat, suberoylanilide hydroxamic acid]					IC50 ([1]; read-out: Liver extract B61 HDAC1 IC50): 1030 ± 201 nM; cellular potency for HDAC6 vs HDAC1 (higher for HDAC6) ([5]; tubulin acetylation vs H3 acetylation): 10 fold
